For data set [1], the system named is Acinetobacter baumannii. As to the kind of experiment: Antibacterial activity against Acinetobacter baumannii ATCC 19606 assessed as inhibition of bacterial growth measured after 18 hrs by resazurin dye based analysis. In kind it is functional.
The nature of data set [2]: Cytotoxicity against HEK293 cells assessed as cell growth inhibition measured after 20 hrs by resazurin dye based assay. It is filed as toxicity. As to conditions: human. On the technique in general: The colour change of resazurin is a common sign of viable cells or microbes.
The subject of data set [3] is Candida albicans. As to the kind of experiment: Antifungal activity against Candida albicans ATCC 90028 assessed as fungal growth inhibition incubated for 36 hrs by resazurin dye based analysis. It is filed as functional.
In data set [4] the test system is Escherichia coli. As to the kind of experiment: Antibacterial activity against Escherichia coli ATCC 25922 assessed as inhibition of bacterial growth measured after 18 hrs by resazurin dye based analysis. It is filed as functional.
For data set [5], the system named is Cryptococcus neoformans. As to the kind of experiment: Antifungal activity against Cryptococcus neoformans ATCC 208821 assessed as fungal growth inhibition incubated for 36 hrs by resazurin dye based analysis. It is filed as functional.
For data set [6], the system named is Klebsiella pneumoniae. Put plainly: Antibacterial activity against Klebsiella pneumoniae ATCC 700603 assessed as inhibition of bacterial growth measured after 18 hrs by resazurin dye based analysis. In kind it is functional.
For data set [7], the system named is Pseudomonas aeruginosa. Put plainly: Antibacterial activity against Pseudomonas aeruginosa ATCC 27853 assessed as inhibition of bacterial growth measured after 18 hrs by resazurin dye based analysis. It is filed as functional.
For data set [8], the system named is Staphylococcus aureus. As to the kind of experiment: Antibacterial activity against methicillin-resistant Staphylococcus aureus ATCC 43300 assessed as inhibition of bacterial growth measured after 18 hrs by resazurin dye based analysis. In kind it is functional.
Data set [9] relates to Escherichia coli. Put plainly: Antibiotic adjuvant activity against Escherichia coli ATCC 25922 assessed as erythromycin MIC measured after 18 hrs in presence of erythromycin. In kind it is functional.

Each structure is given as a SMILES string. A value given as a limit tells only on which side of the number the result lay.

In the case of `C[C@]1(C(=O)O)CCC[C@]2(C)c3cc(OC(=O)NCCCNCCCCCCCCN)ccc3CC[C@@H]12.O=C(O)C(F)(F)F.O=C(O)C(F)(F)F`, the MIC in data set [1], in data set [3], in data set [4], in data set [5], in data set [6] and in data set [7] was more than 43.8 µM each time. The MIC – broadly, the least concentration at which growth counts as inhibited – in data set [8] was more than 43.8 µM. Besides, in data set [2], the IC50 (commonly the concentration at which inhibition is half-maximal) at 20 h was more than 43.8 µM.

Turning to `COC(=O)[C@@]1(C)CCC[C@]2(C)c3cc(OC(=O)CCCNCCCCCCCNCCCNC(=O)Oc4ccc5c(c4)[C@@]4(C)CCC[C@](C)(C(=O)OC)[C@@H]4CC5)ccc3CC[C@@H]12.O=C(O)C(F)(F)F.O=C(O)C(F)(F)F`, the MIC in data set [1] was more than 29.1 µM; in data set [3], not above 0.23 µM; in data set [4], more than 29.1 µM; in data set [5], 7.26 µM; in data set [6], more than 29.1 µM; in [7], more than 29.1 µM. The MIC in [8] was not above 0.23 µM. The IC50 at 20 h in [2] was more than 29.1 µM.

Turning to `C[C@]1(C(=O)NCCCNCCCCCCCCNCCCNC(=O)[C@@]2(C)CCC[C@]3(C)c4cc(O)ccc4CC[C@@H]23)CCC[C@]2(C)c3cc(O)ccc3CC[C@@H]12.O=C(O)C(F)(F)F.O=C(O)C(F)(F)F`, the MIC in data set [1] is 32 µM; in data set [3] it was 32 µM; in [4], 32 µM; in data set [5], 32 µM; in [6], more than 32 µM; in data set [7], more than 32 µM. Besides, the MIC in data set [8] was 8 µM. Moreover, in data set [2], the IC50 at 20 h is 18.1 µM.

On to `C[C@]1(C(=O)NCCCNCCCCCCNCCCNC(=O)[C@@]2(C)CCC[C@]3(C)c4cc(O)ccc4CC[C@@H]23)CCC[C@]2(C)c3cc(O)ccc3CC[C@@H]12.O=C(O)C(F)(F)F.O=C(O)C(F)(F)F`, for which the MIC in data set [1] is more than 32.9 µM; in data set [3], 32.9 µM; in data set [4], 32.9 µM; in data set [5], 32.9 µM; in [6], more than 32.9 µM; in data set [7] it was more than 32.9 µM. Further, the MIC in [8] is 32.9 µM. Besides, the IC50 at 20 h in [2] is 28.6 µM.

Consider `COC(=O)[C@@]1(C)CCC[C@]2(C)c3cc(OC(=O)CCCNCCCCCCCCCCCCNCCCNC(=O)Oc4ccc5c(c4)[C@@]4(C)CCC[C@](C)(C(=O)OC)[C@@H]4CC5)ccc3CC[C@@H]12.O=C(O)C(F)(F)F.O=C(O)C(F)(F)F`, for which the MIC was more than 27.3 µM in data set [1]; not above 0.21 µM in [3]; more than 27.3 µM in data set [4]; 0.43 µM in data set [5]; more than 27.3 µM in data set [6]; more than 27.3 µM in data set [7]. Further, in [8], the MIC is not above 0.21 µM. Moreover, the IC50 at 20 h in [2] was more than 27.3 µM.

Regarding `COC(=O)[C@@]1(C)CCC[C@]2(C)c3cc(OC(=O)CCCNCCCCCCCCNCCCNC(=O)Oc4ccc5c(c4)[C@@]4(C)CCC[C@](C)(C(=O)OC)[C@@H]4CC5)ccc3CC[C@@H]12.O=C(O)C(F)(F)F.O=C(O)C(F)(F)F`, the MIC in data set [1] is more than 28.7 µM; in data set [3] it was not above 0.22 µM; in [4], more than 28.7 µM; in data set [5], 0.45 µM; in data set [6], more than 28.7 µM; in data set [7] it was more than 28.7 µM. In addition, the MIC in data set [8] is not above 0.22 µM. Further, in data set [2], the IC50 at 20 h was more than 28.7 µM.

As to `CCCCCNC(=O)[C@@]1(C)CCC[C@]2(C)c3cc(OC(=O)CCCNCCCCNCCCNC(=O)Oc4ccc5c(c4)[C@@]4(C)CCC[C@](C)(C(=O)NCCCCC)[C@@H]4CC5)ccc3CC[C@@H]12.O=C(O)C(F)(F)F.O=C(O)C(F)(F)F`, the MIC in data set [1] was more than 27.4 µM; in data set [3] it was 13.7 µM; in data set [4], more than 27.4 µM; in [5] it was more than 27.4 µM; in data set [6] it was more than 27.4 µM; in data set [7], more than 27.4 µM. The MIC in data set [8] was not above 0.21 µM. In data set [2], the IC50 at 20 h was more than 27.4 µM.

Take `C[C@]1(C(=O)NCCCNCCCCCCCN)CCC[C@]2(C)c3cc(OC(=O)NCCCNCCCCCCCN)ccc3CC[C@@H]12.O=C(O)C(F)(F)F.O=C(O)C(F)(F)F.O=C(O)C(F)(F)F.O=C(O)C(F)(F)F`: the MIC in data set [1] was more than 29.7 µM; in [9], 50 µM; in data set [3] it was more than 29.7 µM; in data set [4], more than 29.7 µM; in data set [5], more than 29.7 µM; in data set [6] it was more than 29.7 µM. The MIC was more than 29.7 µM in [7] and more than 28.7 µM in data set [8]. In [2], the half-inhibitory concentration (IC50) at 20 h was more than 28.7 µM.

On to `CCCCCNC(=O)[C@@]1(C)CCC[C@]2(C)c3cc(OC(=O)CCCNCCCCCCNCCCNC(=O)Oc4ccc5c(c4)[C@@]4(C)CCC[C@](C)(C(=O)NCCCCC)[C@@H]4CC5)ccc3CC[C@@H]12.O=C(O)C(F)(F)F.O=C(O)C(F)(F)F`, for which the MIC in data set [1] is more than 26.7 µM; in data set [3], 1.67 µM; in data set [4], more than 26.7 µM; in [5] it was 6.68 µM; in [6], more than 26.7 µM; in data set [7], more than 26.7 µM. The MIC in data set [8] is not above 0.21 µM. Further, the IC50 at 20 h in data set [2] was more than 26.7 µM.

With `C[C@]1(C(=O)O)CCC[C@]2(C)c3cc(OC(=O)NCCCNCCCCCCCCCCCCN)ccc3CC[C@@H]12.O=C(O)C(F)(F)F.O=C(O)C(F)(F)F`, the MIC in data set [1] was more than 32.8 µM; in data set [3], 32.8 µM; in [4], more than 32.8 µM; in data set [5], more than 32.8 µM; in [6] it was more than 32.8 µM; in data set [7] it was more than 32.8 µM. Moreover, the MIC in data set [8] was more than 32.8 µM. The IC50 at 20 h in [2] is more than 32.8 µM.

`COC(=O)[C@@]1(C)CCC[C@]2(C)c3cc(OC(=O)CCCNCCCCCCCCCCNCCCNC(=O)Oc4ccc5c(c4)[C@@]4(C)CCC[C@](C)(C(=O)OC)[C@@H]4CC5)ccc3CC[C@@H]12.O=C(O)C(F)(F)F.O=C(O)C(F)(F)F`: the MIC in data set [1] is more than 28 µM; in data set [3], not above 0.22 µM; in data set [4], more than 28 µM; in data set [5], not above 0.22 µM; in [6] it was more than 28 µM; in [7] it was more than 28 µM. In addition, the MIC in data set [8] was found to be 3.5 µM. Also, the IC50 at 20 h in data set [2] was 1.3 µM.

As to `C[C@]1(C(=O)O)CCC[C@]2(C)c3cc(OC(=O)CCCNCCCCCCCNCCCNC(=O)Oc4ccc5c(c4)[C@@]4(C)CCC[C@](C)(C(=O)O)[C@@H]4CC5)ccc3CC[C@@H]12.O=C(O)C(F)(F)F.O=C(O)C(F)(F)F`, the MIC was more than 29.8 µM in [1]; 29.8 µM in [3]; more than 29.8 µM in data set [4]; 7.45 µM in data set [5]; more than 29.8 µM in data set [6]; more than 29.8 µM in data set [7]. For the same compound, in data set [8], the MIC was more than 29.8 µM. Further, the IC50 at 20 h in data set [2] is more than 29.8 µM.

As for `C[C@]1(C(=O)NCCCNCCCCCCCCCCNCCCNC(=O)[C@@]2(C)CCC[C@]3(C)c4cc(O)ccc4CC[C@@H]23)CCC[C@]2(C)c3cc(O)ccc3CC[C@@H]12.O=C(O)C(F)(F)F.O=C(O)C(F)(F)F`, the MIC was more than 32.1 µM in data set [1]; more than 32.1 µM in [3]; more than 31.1 µM in [4]; 3.89 µM in [5]; more than 31.1 µM in data set [6]; more than 31.1 µM in [7]. For the same compound, in [8], the MIC is not above 0.24 µM. In data set [2], the IC50 at 20 h is 0.87 µM.

For the compound `C[C@]1(C(=O)O)CCC[C@]2(C)c3cc(OC(=O)NCCCNCCCCCCN)ccc3CC[C@@H]12.O=C(O)C(F)(F)F.O=C(O)C(F)(F)F`, the MIC in [1], in [3], in data set [4], in data set [5], in data set [6] and in data set [7] was more than 45.6 µM each time. In addition, the MIC in [8] is more than 45.6 µM. Besides, the IC50 at 20 h in data set [2] is more than 45.6 µM.

As for `CCCCCNC(=O)[C@@]1(C)CCC[C@]2(C)c3cc(OC(=O)CCCNCCCCCCCNCCCNC(=O)Oc4ccc5c(c4)[C@@]4(C)CCC[C@](C)(C(=O)NCCCCC)[C@@H]4CC5)ccc3CC[C@@H]12.O=C(O)C(F)(F)F.O=C(O)C(F)(F)F`, the MIC in data set [1] was more than 26.4 µM; in data set [3] it was not above 0.21 µM; in [4], more than 26.4 µM; in data set [5], 3.3 µM; in [6], more than 26.4 µM; in data set [7], more than 26.4 µM. The MIC in data set [8] was not above 0.21 µM. Besides, in data set [2], the concentration for half-maximal inhibition (IC50) at 20 h is more than 26.4 µM.

As for `C[C@]1(C(=O)NCCCNCCCCCCN)CCC[C@]2(C)c3cc(O)ccc3CC[C@@H]12.O=C(O)C(F)(F)F.O=C(O)C(F)(F)F`, the MIC in data set [1], in data set [3], in data set [4], in data set [5], in data set [6] and in data set [7] was more than 48.6 µM in each case. Moreover, the MIC in data set [8] is more than 48.6 µM. For the same compound, the IC50 at 20 h in data set [2] was more than 48.6 µM.

Consider `C[C@]1(C(=O)O)CCC[C@]2(C)c3cc(OC(=O)CCCNCCCCCCCCCCCCNCCCNC(=O)Oc4ccc5c(c4)[C@@]4(C)CCC[C@](C)(C(=O)O)[C@@H]4CC5)ccc3CC[C@@H]12.O=C(O)C(F)(F)F.O=C(O)C(F)(F)F`, for which the MIC was more than 28 µM in data set [1]; more than 28 µM in data set [3]; more than 28 µM in data set [4]; 3.5 µM in data set [5]; more than 28 µM in data set [6]; more than 28 µM in data set [7]. Further, the MIC in data set [8] is 14 µM. Moreover, the IC50 at 20 h in data set [2] is more than 28 µM.

Consider `C[C@]1(C(=O)NCCCNCCCCCCCCCCN)CCC[C@]2(C)c3cc(O)ccc3CC[C@@H]12.O=C(O)C(F)(F)F.O=C(O)C(F)(F)F`, for which the MIC in data set [1], in [3], in data set [4], in data set [5], in data set [6] and in data set [7] was more than 44.8 µM in each case. Also, the MIC in data set [8] was more than 44.8 µM. Besides, the IC50 at 20 h in [2] was more than 44.8 µM.

The record behind these values is ChEMBL document CHEMBL5143685, “Valorisation of the diterpene podocarpic acid - Antibiotic and antibiotic enhancing activities of polyamine conjugates” (Bioorg Med Chem, 2022).
